Substitutions are numbered along the chain they refer to.
Tests used:
[1] = molecular target: T1, human muscarinic M1 receptors (Homo sapiens, UniProt P11229); assay: Stimulation of inositol phosphate production in A9L cells, human M1 (IPOne TR-FRET); assay type: cell-based; details: huM1/A9L versus huM3/A9L
T1 construct: host or cells: A9L cells
T1 sequence (P11229 1-460): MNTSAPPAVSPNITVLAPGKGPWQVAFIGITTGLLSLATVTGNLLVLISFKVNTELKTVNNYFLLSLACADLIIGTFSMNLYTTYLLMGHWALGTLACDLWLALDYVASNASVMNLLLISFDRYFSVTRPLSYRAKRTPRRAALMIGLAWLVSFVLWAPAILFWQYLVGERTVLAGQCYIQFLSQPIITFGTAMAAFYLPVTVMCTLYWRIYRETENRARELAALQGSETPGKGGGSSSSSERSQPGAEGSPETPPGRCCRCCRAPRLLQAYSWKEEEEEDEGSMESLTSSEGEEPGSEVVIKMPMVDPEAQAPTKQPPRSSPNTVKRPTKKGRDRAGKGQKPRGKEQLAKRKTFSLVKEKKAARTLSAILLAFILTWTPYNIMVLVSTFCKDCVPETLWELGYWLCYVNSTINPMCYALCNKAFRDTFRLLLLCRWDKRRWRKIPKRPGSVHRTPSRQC
Procedure: Muscarinic M1 and M3 agonist activity was evaluated by measuring the stimulation of inositol phosphate (IP) production in the presence of lithium chloride from A9L cells transfected with expression plasmids containing human muscarinic M1 and M3 receptors, respectively. The cell lines were a gift from Professor W Messer, and the methods were as described in Tejada F R et al. J. Med. Chem. 2006; 49: 7518-31 except that the assay was scaled down to run in 384 well plates, and IP was measured in the cell lysates using the non-isotopic IPOne TR-FRET assay (CIS-BIO, Inc).
Cells were grown to 90% confluence in 384 well hi-base plates (Greiner Bio-One), compounds were added at suitable concentrations in growth medium containing 10 mM LiCL, buffered with an extra 10 mM HEPES (pH7.4), and incubated for 60 minutes at 37° C. Cells were lysed and assayed for IP following the manufacturer's instructions.
The value for a full agonist is 100%, while partial agonists give values below 100%.

[2] = system: pooled male human liver microsomes; assay: Metabolism by human liver microsomes; assay type: in vitro ADME; details: 6 hours incubation
Procedure: Compounds were incubated with pooled male human liver microsomes (BD Biosciences, #452172) and an NADP-regenerating system in a phosphate buffer (pH 7.4) for a total of 6 hours. Aliquots were removed every 2 hours, and 1% formic acid was added to halt the reaction. Samples were centrifuged, filtered through 0.2 micron spinfilter and the amount of each compound in the supernatants was quantitated using LC/MS/MS.

[3] = system: pooled male Sprague-Dawley rat liver microsomes; assay: Metabolism by rat liver microsomes; assay type: in vitro ADME; details: 6 hours incubation
Procedure: Compounds were incubated with pooled male Sprague-Dawley rat liver microsomes (BD Biosciences, #452501) and an NADP-regenerating system in a phosphate buffer (pH 7.4) for a total of 6 hours. Aliquots were removed every 2 hours, and 1% formic acid was added to halt the reaction. Samples were centrifuged, filtered through 0.2 micron spinfilter and the amount of each compound in the supernatants was quantitated using LC/MS/MS.

rat M3 receptors = molecular target: T2, rat M3 receptors (Rattus norvegicus, UniProt P08483); assay: PI turnover (inositol phosphate production) in M3-CHO cells; assay type: cell-based; details: mean Smax relative to mean Smax for carbachol (100)
T2 construct: host or cells: Chinese Hamster Ovary cells (M3-CHO)
Procedure: (§1) The medium was changed to 70 μL/well of inositol-free DMEM containing 2 mM glutamine, 10% FBS and 10 μCi/ml of [3H]-inositol (PE:cat #NET114A250UC), incubated overnight as above, then 100 μL of a solution of the test compound in HBSS containing 10 mM LiCl and 20 mM HEPES, pH 7.4 was added, incubation was continued for 60 min under the above conditions, and the test was stopped by removing the test compound and replacing with 100 μL of 50 mM formic acid in water at 4° C.

rat M1 receptors = molecular target: T3, rat M1 receptors (Rattus norvegicus, UniProt P08482); assay: PI turnover (inositol phosphate production) in M1-CHO cells; assay type: cell-based; details: for Muscarinic agonist activity by PI turnover: cell lines expressing M1 and M3 subtypes
T3 construct: host or cells: Chinese Hamster Ovary cells (M1-CHO)
T3 sequence (P08482 1-460): T1 sequence (P11229 1-460) with A5V, T254S, P309S, R320K, A337G, I413V
Procedure: as §1

rats = assay: Muscarinic effects in vivo (salivary flow) in rats dosed orally; design: species or system rat
[4] = Delivery of MCD-386 in rats by iontophoresis patch versus oral gavage: plasma concentration; assay type: in vivo; details: rat
Procedure: Two patches were made up, consisting (in order from the outer layer to the skin contacting surface, respectively): adhesive tape (Transpore, 27 mm wide, 3M), circular stainless steel electrodes (22 mm dia) with a central hole for a stainless steel machine screw to which the electrode wire was attached, and 2 layers of 3mM CHR filter paper (Cat #3030-861, Whatman International, Ltd).
The mid-dorsal area of a Long Evans Hooded rat (approximate weight, 320 grams), surgically prepared with a jugular vein catheter (Charles River), was shaved and the skin was then cleaned using an Electrode Prep Pad (Professional Disposables, Inc, Cat #B59800). […]
Blood (400 μl) was withdrawn from the catheters in each rat every 30 minutes, transferred to 1.5 ml centrifuge tubes containing heparin (15 units/tube), and the plasma was separated by centrifugation from the cellular components. The plasma samples were maintained at 4 deg C. until analyzed. […]
The ultra-filtrates were subjected to reverse-phase liquid chromatography using a 150×2.1 mm Agilent C8 reverse-phase column on a Shimadzu Prominence LC, eluting the MCD-386 with an isocratic flow of 2% acetonitrile+0.1% formic acid. The concentration of MCD-386 in the column effluent was measured using an Applied Biosystems API-3200 triple quadrupole mass spectrometer equipped with a Turbo V source (electrospray sample injection) system. […]

[5] = Blood and brain concentrations (rats) after oral gavage; assay type: in vivo, rat; details: for Brain Cmax (10 mg/kg po) 1 hr MCD-386 = 1.00: rat brain, relative to MCD-386
Procedure: Long-Evans Hooded rats (Charles River: male, 250-350 g) were dosed with solutions of test compounds in PBS by oral gavage. At the desired time after dosing, the animals were anesthetized with isoflurane, and then euthanized by cervical dislocation. Blood was obtained by cardiac puncture, transferred to a 1.5 mL microcentrifuge tube containing 15U Heparin, and the plasma recovered after centrifugation. Brains were dissected, weighed, immediately chilled to 4° C., and homogenized using a PowerGen 125 homogenizer in five volumes of ice-cold 2% formic acid. Proteins were precipitated from plasma and brain homogenate with two and five volumes respectively of ice-cold 2% formic acid and clarified by centrifugation. The supernatant was ultra-filtered by centrifugation through a 3K MWCO spin column (Pall Life Sciences), following the manufacturer's instructions. The concentration of compound in the ultra-filtrate was subjected to reverse-phase liquid chromatography using a 150×2.1 mm Agilent C8 reverse-phase column on a Shimadzu Prominence LC, eluting the compounds with a gradient of 2% to 50% of acetonitrile+0.1% formic acid for compound MI-50,382, or an isocratic flow of 2% acetonitrile+0.1% formic acid for the rest of the compounds listed. The concentration of the compound in the column effluent was measured using an Applied Biosystems API-3200 triple quadrupole mass spectrometer equipped with an electrospray sample injection system. The counts of the characteristic parent and product ions of each test compound were converted to concentration units by comparison with a standard calibration curve.

[6] = Metabolites in serum and urine of dosed rats; assay type: in vivo; details: rat serum/plasma or urine
Procedure: Oxadiazoles disclosed herein as well as other oxadiazoles were investigated to determine the formation of metabolites. Animals were dosed, blood taken, serum prepared, serum proteins precipitated and ultrafiltrates prepared as described in Example 6. In separate experiments, urine was collected from rats for 16-24 hours after dosing, using standard metabolic cages. The urine container and collected urine were maintained at 4° C. Urine was lyophilized, taken back into water. The ultrafiltrate was prepared by adding formic acid to a final concentration of 1% to the urine samples, then filtered through a 0.2 um nylon membrane. The ultrafiltrate was subjected to LC-MS analysis. Instead of measuring the product ions in Q3, manual Q1 scans of the liquid chromatograph were undertaken, seeking parent ions of potential metabolites of the compounds. The criteria for identifying metabolites were as follows: (1) the ion should be present in the sera or urines of dosed rats, but not in sera or urines from non-dosed rats (2) the ion should be identifiable as a metabolic derivative of the dosed compound (e.g. loss of a functional chemical moiety, addition of a hydroxyl group or a glucuronic acid moiety, etc). Metabolites were determined not to be present if no compound meeting the above criteria could be detected in serum or urine.

T2 sequence (P08483 whole entry): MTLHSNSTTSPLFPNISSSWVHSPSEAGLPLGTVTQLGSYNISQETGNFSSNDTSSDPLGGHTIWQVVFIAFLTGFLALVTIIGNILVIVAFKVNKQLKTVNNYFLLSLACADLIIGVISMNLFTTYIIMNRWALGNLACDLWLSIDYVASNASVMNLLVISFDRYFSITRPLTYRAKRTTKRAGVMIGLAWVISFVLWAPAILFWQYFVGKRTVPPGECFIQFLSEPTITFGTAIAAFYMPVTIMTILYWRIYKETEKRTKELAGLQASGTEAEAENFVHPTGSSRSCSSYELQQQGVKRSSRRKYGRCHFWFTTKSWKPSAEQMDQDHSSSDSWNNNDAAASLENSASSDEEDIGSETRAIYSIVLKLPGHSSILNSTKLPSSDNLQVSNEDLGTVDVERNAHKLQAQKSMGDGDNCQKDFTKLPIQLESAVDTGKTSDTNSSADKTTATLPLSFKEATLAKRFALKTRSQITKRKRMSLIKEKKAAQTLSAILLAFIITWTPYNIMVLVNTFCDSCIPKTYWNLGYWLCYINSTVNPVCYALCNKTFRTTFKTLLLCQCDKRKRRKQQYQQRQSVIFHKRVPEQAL

| Compound | Metabolism in human liver microsomes [2] | PAMPA units (PAMPA test) | M3/CHO PI turnover Relative Mean Smax (rat M3 receptors) | Muscarinic agonist activity by PI turnover (rat M1 receptors) | Brain Cmax (10 mg/kg po) 1 hr MCD-386 = 1.00 [5] | other results |
| --- | --- | --- | --- | --- | --- | --- |
| Cc1noc(C2=CCCN(C)C2)n1 [Compound 36, 3-methyl-5-(1-methyl-1,2,5,6-tetrahydropyridin-3-yl)-1,2,4-oxadiazole, reference compound] | nearly completely metabolized | 12.75 | – | – | – | Selectivity for M1 versus M3 receptors [1]: some selectivity for M1 versus M3 receptors; Metabolism in rat liver microsomes [3]: nearly completely metabolized |
| Cl.[2H]C([2H])([2H])c1noc(C2CN=CNC2)n1 (centres unmarked) [compound 4, 3-(d3-methyl)-5-(1,4,5,6-tetrahydropyrimidin-5-yl)-1,2,4-oxadiazole hydrochloride] | – | – | 92.6 | near full-agonist | – | Functional selectivity for M1 subtype by PI turnover (rat M1 receptors; M1 versus M3 cell lines): not selective for the M1 subtype; Salivary flow (rats; rats, dosed orally): copious salivary flow, which was relatively short-lived |
| CCc1noc(C2CN=CNC2)n1 (centres unmarked) [MCD-386, 5-(3-ethyl-1,2,4-oxadiazol-5-yl)-1,4,5,6-tetrahydropyrimidine] | – | 0.05 | – | – | 1.00 | Bioavailability by transdermal delivery versus oral administration [4]: up to three times higher |
| [2H]C([2H])([2H])c1noc(C2CCCNC2)n1 (centres unmarked) [compound 7, 3-D3-Methyl-5-(piperidin-3-yl)-1,2,4-oxadiazole] | metabolized significantly less in human liver microsomes than in rat liver microsomes | – | 0 | relatively low | 2.16 | M1/CHO PI turnover Relative Mean Smax (rat M1 receptors; mean Smax relative to mean Smax for carbachol (100)): 2.7; Presence of metabolites (10 mg/kg po) [6]: No metabolites were identified and No; Plasma concentration relative to compound 1 ([5]; after oral dosing to rats): approximately 2.4 times; Penetration into the brain ([5]; rats after oral dosing): penetrated into the brain; Muscarinic agonist activity in vivo (rats; in vivo): demonstrated muscarinic agonist activity in vivo |

Source: US8853219B2, “Compounds and compositions for cognition-enhancement, methods of making, and methods of treating” (NeuroSolis, Inc., priority 2010, dated 2014)
